From PubChem BioAssay AID256 (DTP/NCI, 2004)
Toxic doses and inconclusive results are not listed.

Tested on: CD2F1 mice, L1210 leukemia ip, survival T/C
Assay: NCI In Vivo Anticancer Drug Screen. Data for tumor model L1210 Leukemia (intraperitoneal) in CD2F1 (CDF1) mice
Conditions: endpoint: mean survival time, higher = longer survival
In short: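 Activity against a transplanted murine tumor was judged by comparing the compound group with a vehicle group. The outcome in the treated animals was divided by that in the controls.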

[1] = dose: 50.0 mg/kg/injection, schedule: Q04DX003 (ip), vehicle: saline
[2] = dose: 100.0 mg/kg/injection, schedule: Q04DX003 (ip), vehicle: saline with Tween-80
[3] = dose: 200.0 mg/kg/injection, schedule: Q04DX003 (ip), vehicle: saline with Tween-80
[4] = dose: 100.0 mg/kg/injection, schedule: Q01DX009 (ip), vehicle: saline with Tween-80
[5] = dose: 100.0 mg/kg/injection, schedule: Q01DX001 (ip), vehicle: saline with Tween-80
[6] = dose: 200.0 mg/kg/injection, schedule: Q01DX001 (ip), vehicle: saline with Tween-80
[7] = dose: 200.0 mg/kg/injection, schedule: Q01DX009 (ip), vehicle: saline with Tween-80
[8] = dose: 400.0 mg/kg/injection, schedule: Q01DX009 (ip), vehicle: saline with Tween-80

## NC(=O)C1=C(CCCCl)c2ccccc2C1=O
[1]
  T/C: 112 % of control
dose: 100.0 mg/kg/injection, schedule: Q01DX001 (ip), vehicle: saline
  T/C: 102 % of control
dose: 100.0 mg/kg/injection, schedule: Q04DX003 (ip), vehicle: saline
  T/C: 115 % of control
dose: 200.0 mg/kg/injection, schedule: Q01DX001 (ip), vehicle: saline
  T/C: 95 % of control
dose: 200.0 mg/kg/injection, schedule: Q04DX003 (ip), vehicle: saline
  T/C: 90 % of control

## CC#CC#CC(=O)c1ccccc1
dose: 5.0 mg/kg/injection, schedule: Q01DX001 (ip), vehicle: saline
  T/C: 97 % of control
dose: 10.0 mg/kg/injection, schedule: Q01DX001 (ip), vehicle: saline
  T/C: 100 % of control

## CCOC(=O)/C=C/C(=O)O.[Cu+2]
dose: 1.56 mg/kg/injection, schedule: Q04DX003 (ip), vehicle: saline
  T/C: 108 % of control
dose: 3.12 mg/kg/injection, schedule: Q04DX003 (ip), vehicle: saline
  T/C: 108 % of control
dose: 6.25 mg/kg/injection, schedule: Q04DX003 (ip), vehicle: saline
  T/C: 104 % of control

## CCOC(=O)/C(=C/c1ccc(OCc2ccccc2)cc1)P(=O)(OCC)OCC
[2]
  T/C: 98 % of control
[3]
  T/C: 96 % of control
dose: 400.0 mg/kg/injection, schedule: Q04DX003 (ip), vehicle: saline with Tween-80
  T/C: 101 % of control

## C=C(Cl)CN(CC)CCO
[4]
  T/C: 103 % of control

## CCCCC1=C(P(=O)(OCC)OCC)C(F)(F)C(F)(F)C1(F)F
dose: 75.0 mg/kg/injection, schedule: Q01DX001 (ip), vehicle: other
  T/C: 98 % of control
dose: 150.0 mg/kg/injection, schedule: Q01DX001 (ip), vehicle: other
  T/C: 86 % of control
dose: 300.0 mg/kg/injection, schedule: Q01DX001 (ip), vehicle: other
  T/C: 100 % of control

## C=CCCCCCCCCC(=O)NC(C)COC (stereo unspecified)
[5]
  T/C: 107 % of control
[6]
  T/C: 98 % of control

## Cc1cc(Cl)ccc1NC(=O)N1CCCC(C)C1 (stereo unspecified)
dose: 12.5 mg/kg/injection, schedule: Q01DX009 (ip), vehicle: saline with Tween-80
  T/C: 95 % of control
dose: 25.0 mg/kg/injection, schedule: Q01DX009 (ip), vehicle: saline with Tween-80
  T/C: 102 % of control
dose: 50.0 mg/kg/injection, schedule: Q01DX009 (ip), vehicle: saline with Tween-80
  T/C: 91 % of control

## CNCC(=O)NC(CO)C(=O)NC(CO)C(=O)NC1C(C(N)=O)OC(n2ccc(N)nc2=O)C(O)C1O (stereo unspecified)
dose: 0.19 mg/kg/injection, schedule: Q01DX005 (ip), vehicle: water
  T/C: 98 % of control
dose: 0.38 mg/kg/injection, schedule: Q01DX005 (ip), vehicle: water
  T/C: 104 % of control
dose: 0.75 mg/kg/injection, schedule: Q01DX005 (ip), vehicle: water
  T/C: 98 % of control

## Cc1nc(C(=O)O)c(C(=O)O)[nH]1
[4]
  T/C: 98 % of control
[2]
  T/C: 100 % of control
[7]
  T/C: 97 % of control
[3]
  T/C: 94 % of control

## COc1ccc(OC)c2nc(-c3ccccc3)c(-c3ccccc3)nc12
[4]
  T/C: 98 % of control
[7]
  T/C: 97 % of control
[8]
  T/C: 104 % of control

## CC(C)OC(=O)C(NC=O)C(C)(C)S (stereo unspecified)
[4]
  T/C: 100 % of control
[7]
  T/C: 96 % of control
[8]
  T/C: 95 % of control

## S=C([SH2+])[SH2+].S=C([SH2+])[SH2+].[Pt+2].c1ccc(C[P+](c2ccccc2)(c2ccccc2)c2ccccc2)cc1
dose: 12.0 mg/kg/injection, schedule: Q04DX003 (ip), vehicle: saline
  T/C: 87 % of control
dose: 25.0 mg/kg/injection, schedule: Q04DX003 (ip), vehicle: saline
  T/C: 100 % of control
[1]
  T/C: 94 % of control

## Oc1ccc(CCNCc2cc3c(cc2Br)OCO3)cc1
[5]
  T/C: 104 % of control
[6]
  T/C: 96 % of control
dose: 400.0 mg/kg/injection, schedule: Q01DX001 (ip), vehicle: saline with Tween-80
  T/C: 104 % of control
